In patent US12612424B2, “HPK1 inhibitors and uses thereof” (Regor Pharmaceuticals, Inc., priority 2019, dated 2026):
Like-named read-outs stand apart in the source and are kept apart here.

Assays:
[1] = target: T1, JAK3 (Homo sapiens, UniProt P52333); assay: JAK3 biochemical assay (ADP-GLO Kinase Assay); conditions: for JAKs/HPK1 IC50 Ratio, B*: first testing facility
T1 construct: purchased Thermo fisher PV3855
Method: Biology Example 4 JAK3 Biochemical Assay
This example used the ADP-GLO™ Kinase Assay to measure the effect of potential HPK1 inhibitor compounds on JAK3 kinase activity. An exemplary experimental setting is described below, though minor adjustments can be made in individual assays.
3. Procedures • 1. Prepare JAK3 kinase buffer • Freshly adding DTT and BSA into Buffer (Final Conc.: 40 mM Tris pH7.5; 20 mM MgCl2, 0.1 mg/ml BSA, 50 μM DTT).
• 2. Compounds Preparation • For tested compounds: compounds were diluted to 1 mM, by mixing 5 μL of 10 mM compound stocks to 45 μL DMSO. The compounds solutions were then serially diluted 3-fold for 10 doses. The top compound concentration was 1 mM (100×), DMSO concentration was 100%. • 50 nL of each of 10 doses of diluted compound were added to 384-well assay plate (Corning #4512) by ECHO. • For positive control, 50 nL of 1 mM reference compound were added to 384-well assay plate (Corning #4512) by ECHO. • For negative control: 50 nL of DMSO was transferred into 384-well assay plate as a negative control. • The assay plate was centrifuged at 1,500 rpm for 1 minute. • 3. Compounds were Transferred by ECHO Following the Layout Below: • Reference and test compounds 1-15: serial 3-fold dilution from 10 μM to 0.508 nM (10 doses); negative control is 0.78 ng JAK3, 4 μM ATP & 0.2 μg/μL poly, 1% DMSO; positive control is the top dose of the reference compound, 0.78 ng JAK3, 0.2 μg/μL Poly(E4Y1), 4 μMATP, 1% DMSO. • 4. Add 2.5 μL/well of 2×JAK3 working solution using pipette (Thermo, 30 μL multi-channel), Centrifuge at 1,500 rpm for 1 minute. • 5. Add 2.5 μL/well of 2×ATP-Poly(E4Y1) working mixture using pipette (Thermo, 30 μL multi-channel), Centrifuge at 1,500 rpm for 1 minute. • 6. Incubate the assay plate at 25° C. for 60 min. • 7. Add 5 μL/well ADP-GLO™ Reagent by BRAVO to stop the kinase reaction and deplete the unconsumed ATP after 1 hour. Centrifuge at 1,500 rpm for 1 minute. Incubate at 25° C. for 40 min. • 8. Add 10 uL of Kinase Detection Reagent by BRAVO to convert ADP to ATP. Centrifuge at 1,500 rpm for 1 minute. Incubate at 25° C. for 40 min. • 9. Record luminescence signal on an Envision plate reader (384-USL). • 10. Process data using XL-fit. Inhibition %=[1-(test well−Negative control)/(positive control−Negative control)]*100%. 5. Data Analysis
The percent (%) inhibition at each concentration of compound is calculated based on and relative to the signal in the Negative and Positive control wells contained within each assay plate. The Negative control wells served as 0% inhibition, and the Positive control wells served as 100% inhibition. The concentrations and % inhibition values for tested compounds are plotted and the concentration of compound required for 50% inhibition (IC50) is determined with a Three-parameter logistic dose response equation. The endpoint value (IC50) for the reference peptide/compound is evaluated in each experiment as a quality control measure. If the endpoint value was within 3-fold of the expected value then the experiment was deemed acceptable.

[2] = target: HPK1 (Homo sapiens, UniProt Q92918); assay: HPK1 biochemical assay (ADP-GLO Kinase Assay)
Source text: IC50 values of any compounds can be determined accordingly over a range of inhibitor concentrations. In addition, the inhibitory effect of the compounds can also be assess using a biological assay, to determine the effect of the compounds on cytokine secretion by T cells following TCR and CD28 stimulation.
Biology Example 1 HPK1 Biochemical Assay
This example used the ADP-GLO™ Kinase Assay to measure the effect of potential HPK1 inhibitor compounds on HPK1 kinase activity.
The ADP-GLO™ Kinase Assay (Promega Corp., Madison, WI) measures ADP formed from a kinase reaction. According to the manufacture, the ADP formed in a kinase assay is first converted into ATP, which is then used to generate light in a luciferase reaction. The luminescence generated correlates with kinase activity. An exemplary experimental setting is described below, though minor adjustments can be made in individual assays.
Serial 3-fold dilution of compounds from 10 μM (top concentration) to 0.508 nM (lowest concentration). Positive control is 10 μM Reference+enzyme+substrate. Negative control is 1% DMSO+enzyme+substrate.
• 1. Buffer Preparation • 40 mM Tris pH7.5; 20 mM MgCl2, 0.1 mg/ml BSA, 50 μM DTT Buffer Stock
Add 20 mL 1M Tris and 10 mL 1M MgCl2 to 470 mL ddH2O to get buffer stock, and stock at RT. • 2. Preparing Fresh 1* Assay Buffer
• 3. Compounds Preparation • 1) The compounds were diluted to 1 mM, by mixing 10 μL of 10 mM respective compound stocks with 90 μL of DMSO. • 2) The compounds were then diluted 3-fold for 10 doses (5 μL to 10 μL dilution) by BRAVO. The top compound conc. was 1 mM (100×), DMSO Conc. was 100%. • 3) Transfer 100 nL of each diluted compound sample to 384-well plate (Corning-4512) by ECHO. • 4) Centrifuge the plate at 1,500 rpm for 1 minute. • 4. Preparation of 2×ATP-MBP Mixture: • 20 μM ATP, 0.2 μg/μL MBP in Kinase Buffer (final concentration: 10 μM ATP, 0.1 MBP)
• 5. Preparation of 2×HPK1 working solution with assay buffer. • HPK1 final concentration was 0.6 ng/μL. […] Incubate at 25° C. for 40 min. • 11. Record luminescence signal on an Envision plate reader (384-CTG). 5. Data Analysis
The percent (%) inhibition at each concentration of compound is calculated based on and relative to the signal in the High and Low control wells contained within each assay plate. […] The concentrations and % inhibition values for tested compounds were plotted and the concentration of compound required for 50% inhibition (IC50) was determined with a Three-parameter logistic dose response equation. The endpoint value (IC50) for the reference peptide/compound was evaluated in each experiment as a quality control measure. If the endpoint value was within 3-fold of the expected value, then the experiment was deemed acceptable.

[3] = B*: testing performed in a first testing facility, read-out: JAK3 IC50 (nM) Relative, B*
[4] = ratio of JAK3 IC50 to HPK1 IC50
[5] = B*: testing performed in a first testing facility, read-out: HPK1 IC50 (nM) Relative, B*

T1 sequence (P52333 781-1124 limits assumed): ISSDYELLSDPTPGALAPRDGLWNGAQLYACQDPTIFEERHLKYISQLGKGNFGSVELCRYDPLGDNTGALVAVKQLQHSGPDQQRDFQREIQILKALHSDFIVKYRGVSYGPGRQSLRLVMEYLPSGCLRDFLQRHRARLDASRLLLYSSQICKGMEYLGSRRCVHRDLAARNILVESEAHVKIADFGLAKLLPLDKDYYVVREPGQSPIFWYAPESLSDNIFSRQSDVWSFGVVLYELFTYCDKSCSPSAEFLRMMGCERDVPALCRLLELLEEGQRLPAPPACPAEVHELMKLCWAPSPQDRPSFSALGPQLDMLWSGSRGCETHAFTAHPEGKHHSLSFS
Chain of HPK1 (Q92918 whole entry): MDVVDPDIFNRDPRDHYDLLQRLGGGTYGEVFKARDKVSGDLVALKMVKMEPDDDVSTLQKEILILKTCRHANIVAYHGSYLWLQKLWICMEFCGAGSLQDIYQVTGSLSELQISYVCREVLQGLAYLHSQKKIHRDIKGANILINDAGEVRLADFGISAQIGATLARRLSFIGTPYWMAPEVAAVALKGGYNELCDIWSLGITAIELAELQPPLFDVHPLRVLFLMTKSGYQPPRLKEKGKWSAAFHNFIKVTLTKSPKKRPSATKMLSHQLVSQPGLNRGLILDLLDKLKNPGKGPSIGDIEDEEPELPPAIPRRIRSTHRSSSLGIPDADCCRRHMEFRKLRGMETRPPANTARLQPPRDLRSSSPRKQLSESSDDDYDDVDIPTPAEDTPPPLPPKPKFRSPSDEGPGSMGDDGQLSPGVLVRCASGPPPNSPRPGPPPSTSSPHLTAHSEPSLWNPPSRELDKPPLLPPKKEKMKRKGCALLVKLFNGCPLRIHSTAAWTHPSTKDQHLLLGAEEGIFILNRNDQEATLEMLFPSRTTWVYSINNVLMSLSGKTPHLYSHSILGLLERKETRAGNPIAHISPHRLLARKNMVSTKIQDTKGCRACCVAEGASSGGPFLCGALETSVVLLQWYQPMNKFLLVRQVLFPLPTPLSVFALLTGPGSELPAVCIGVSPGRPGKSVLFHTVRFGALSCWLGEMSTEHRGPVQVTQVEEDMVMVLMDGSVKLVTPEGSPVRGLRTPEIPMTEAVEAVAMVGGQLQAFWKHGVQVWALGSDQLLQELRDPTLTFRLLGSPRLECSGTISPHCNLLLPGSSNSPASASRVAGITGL

With `COc1cc2c(cc1Nc1ncc(Cl)c(N3CC(C(=O)O)c4ccccc43)n1)CN(C)CC2` (single isomer, unassigned) [Example 95] the IC50 [1, 3] was over 1000 nM, the “JAKs/HPK1 IC50 Ratio, B*” value [1, 4] was 150 and the IC50 [2, 5] was at most 100 nM.
`COc1cc2c(cc1Nc1ncc(Cl)c(N3CCc4ccccc4C3)n1)CN(C)CC2` [Example 5, N-(5-chloro-4-(3,4-dihydroisoquinolin-2(1H)-yl)pyrimidin-2-yl)-6-methoxy-2-methyl-1,2,3,4-tetrahydroisoquinolin-7-amine] showed an IC50 [2, 5] of 100 to 500 nM.
With `COc1cc2c(cc1Nc1ncc(Cl)c(N3CCCc4ccccc43)n1)CN(C)CC2` [Example 6, N-(5-chloro-4-(3,4-dihydroquinolin-1(2H)-yl)pyrimidin-2-yl)-6-methoxy-2-methyl-1,2,3,4-tetrahydroisoquinolin-7-amine] the IC50 [1, 3] was over 1000 nM and the IC50 [2, 5] was at most 100 nM.
For `COc1cc2c(cc1Nc1ncc(Cl)c(N3CCOc4ccccc43)n1)CN(C)CC2` [Example 7, N-(5-chloro-4-(2,3-dihydro-4H-benzo[b][1,4]oxazin-4-yl)pyrimidin-2-yl)-6-methoxy-2-methyl-1,2,3,4-tetrahydroisoquinolin-7-amine], the IC50 [1, 3] was over 1000 nM, the “JAKs/HPK1 IC50 Ratio, B*” value [1, 4] was over 118 and the IC50 [2, 5] was at most 100 nM.
Work on `COc1cc2c(cc1Nc1ncc(Cl)c(N3CCc4c(Cl)cccc43)n1)CN(C)CC2` [Example 12, N-(5-chloro-4-(4-chloroindolin-1-yl)pyrimidin-2-yl)-6-methoxy-2-methyl-1,2,3,4-tetrahydroisoquinolin-7-amine] yielded an IC50 [2, 5] of 100 to 500 nM.
In the case of `COc1cc2c(cc1Nc1ncc(Cl)c(N3CCc4cccnc43)n1)CN(C)CC2` [Example 17, N-(5-chloro-4-(2,3-dihydro-1H-pyrrolo[2,3-b]pyridin-1-yl)pyrimidin-2-yl)-6-methoxy-2-methyl-1,2,3,4-tetrahydroisoquinolin-7-amine], the IC50 [2, 5] is reported as 100 to 500 nM.
`COc1cc2c(cc1Nc1ncc(Cl)c(N3CCc4ccccc43)n1)CN(C(=O)CN(C)C)CC2` [Example 26] was tested, and the IC50 [2, 5] was at most 100 nM.
Molecule `COc1cc2c(cc1Nc1ncc(Cl)c(-n3c(C(=O)N(C)C)cc4ccccc43)n1)CN(C)CC2` [Example 28] has an IC50 [2, 5] of over 1000 nM.
`COc1cc2c(cc1Nc1ncc(Cl)c(N3CCn4c3cccc4=O)n1)CN(C)CC2` [Example 31] was tested, and the IC50 [1, 3] was over 1000 nM, the “JAKs/HPK1 IC50 Ratio, B*” value [1, 4] was 31 and the IC50 [2, 5] was 100 to 500 nM.
In the case of `COc1cc2c(cc1Nc1ncc3ccn(-c4ccccc4C(=O)N(C)C)c3n1)CN(C)CC2` [Example 38], the IC50 ([1]; N*: testing performed in a second testing facility, read-out: JAK3 IC50 (nM) Relative, N*) is reported as over 1000 nM, the “JAKs/HPK1 IC50 Ratio, N*” value ([1]; ratio of JAK3 IC50 to HPK1 IC50, second testing facility) is reported as over 163 and the IC50 [2, 5] is reported as 100 to 500 nM. For the same molecule, the IC50 ([2]; N*: testing performed in a second testing facility, read-out: HPK1 IC50 (nM) Relative, N*) was at most 100 nM.
In the case of `COc1cc2c(cc1Nc1ncc3ccn(-c4ccccc4P(C)(C)=O)c3n1)CN(C)CC2` [Example 39, (2-(2-((6-Methoxy-2-methyl-1,2,3,4-tetrahydroisoquinolin-7-yl)amino)-7H-pyrrolo[2,3-d]pyrimidin-7-yl)phenyl)dimethylphosphine oxide], the IC50 [1, 3] is reported as over 1000 nM, the “JAKs/HPK1 IC50 Ratio, B*” value [1, 4] is reported as over 18 and the IC50 [2, 5] is reported as 500 to 1000 nM.
For `COc1cc2c(cc1Nc1ncc3ccn(-c4cccnc4)c3n1)CN(C)CC2` [Example 40, 6-Methoxy-2-methyl-N-(7-(pyridin-3-yl)-7H-pyrrolo[2,3-d]pyrimidin-2-yl)-1,2,3,4-tetrahydroisoquinolin-7-amine], the IC50 [2, 5] was at most 100 nM.
Molecule `COc1cc2c(cc1Nc1ncc3ncn(-c4ccccc4P(C)(C)=O)c3n1)CN(C)CC2` [Example 45, (2-(2-((6-Methoxy-2-methyl-1,2,3,4-tetrahydroisoquinolin-7-yl)amino)-9H-purin-9-yl)phenyl)dimethylphosphine oxide] has an IC50 [2, 5] of over 1000 nM.
`COc1cc2c(cc1Nc1ncc3c(n1)N(c1ccccc1)CCO3)CN(C)CC2` [Example 46, N-(6-methoxy-2-methyl-1,2,3,4-tetrahydroisoquinolin-7-yl)-8-phenyl-7,8-dihydro-6H-pyrimido[5,4-b][1,4]oxazin-2-amine] gave an IC50 [2, 5] of 100 to 500 nM.
Molecule `COc1cc2c(cc1Nc1ncc(Cl)c(-c3ccnc4ccccc34)n1)CN(C)CC2` [Example 49, N-(5-chloro-4-(quinolin-4-yl)pyrimidin-2-yl)-6-methoxy-2-methyl-1,2,3,4-tetrahydroisoquinolin-7-amine] has an IC50 [2, 5] of 100 to 500 nM.
Molecule `CCc1c[nH]c2ncc(-c3ccc(Cl)c(P(C)(C)=O)c3)cc12` [Example 52, (2-Chloro-5-(3-ethyl-1H-pyrrolo[2,3-b]pyridin-5-yl)phenyl)dimethylphosphine oxide] has an IC50 [2, 5] of at most 100 nM.
`CCc1c[nH]c2ncc(-c3cccc(P(C)(C)=O)c3)cc12` [Example 53, (3-(3-Ethyl-1H-pyrrolo[2,3-b]pyridin-5-yl)phenyl)dimethylphosphine oxide] showed an IC50 [2, 5] of 100 to 500 nM.
Work on `CCc1c[nH]c2ncc(-c3ccc(OC)c(P(C)(C)=O)c3)cc12` [Example 54, (5-(3-Ethyl-1H-pyrrolo[2,3-b]pyridin-5-yl)-2-methoxyphenyl)dimethylphosphine oxide] yielded an IC50 [2, 5] of 100 to 500 nM.
In the case of `CCc1c[nH]c2ncc(-c3cc(C)cc(P(C)(C)=O)c3)cc12` [Example 56, (3-(3-Ethyl-1H-pyrrolo[2,3-b]pyridin-5-yl)-5-methylphenyl)dimethylphosphine oxide], the IC50 [2, 5] is reported as 500 to 1000 nM.
`CCc1c[nH]c2ncc(-c3ccc(N4CCCC4)c(P(C)(C)=O)c3)cc12` [Example 59] gave an IC50 [2, 5] of 100 to 500 nM.
Molecule `CCc1c[nH]c2ncc(-c3ccc(NC)c(P(C)(C)=O)c3)cc12` [Example 71, (5-(3-Ethyl-1H-pyrrolo[2,3-b]pyridin-5-yl)-2-(methylamino)phenyl)dimethylphosphine oxide] has an IC50 [2, 5] of 100 to 500 nM.
With `COc1cc2c(cc1Nc1ncc3ccc(P(C)(C)=O)cc3n1)CN(C)CC2` [Example 172] the IC50 [2, 5] was 100 to 500 nM.
